pIC50: −log10 of the molar value. Several values for one entry are separate records, joined by “and”; a condition that tells them apart may be missing. Identical values can stand only once.
What was measured:
[1] = target: PPO2 AMATU L397Q, F420M (variant based on SEQ ID NO: 1) (Amaranthus tuberculatus, UniProt Q0NZW9, F420M/L397Q); assay: biochemical
[2] = target: PPO2 AMATU L397E, F420V (variant based on SEQ ID NO: 1) (Amaranthus tuberculatus, UniProt Q0NZW9, F420V/L397E); assay: biochemical

Row | SMILES | pIC50 [1] | pIC50 [2]
1 | COC(=O)C(OC)Oc1ccccc1Oc1cc(-n2c(=O)cc(C(F)(F)F)n(C)c2=O)c(F)cc1Br (stereo not drawn) [phenyluracil 1, methyl 2-[2-[2-bromo-4-fluoro-5-[3-methyl-2,6-dioxo-4-(trifluoromethyl)pyrimidin-1-yl]phenoxy]phenoxy]-2-methoxy-acetate] | 6.45 | 5.24 and 5.26
2 | CCOC(=O)C(OC)Oc1ccccc1Oc1cc(-n2c(=O)cc(C(F)(F)F)n(C)c2=O)c(F)cc1Br (stereo not drawn) [phenyluracil 2, ethyl 2-[2-[2-bromo-4-fluoro-5-[3-methyl-2,6-dioxo-4-(trifluoromethyl)pyrimidin-1-yl]phenoxy]phenoxy]-2-methoxy-acetate] | 6.80 | 5.17
3 | COC(Oc1ccccc1Oc1cc(-n2c(=O)cc(C(F)(F)F)n(C)c2=O)c(F)cc1Br)C(=O)O (stereo not drawn) [phenyluracil 3, 2-[2-[2-bromo-4-fluoro-5-[3-methyl-2,6-dioxo-4-(trifluoromethyl)pyrimidin-1-yl]phenoxy]phenoxy]-2-methoxy-acetic acid] | 6.84 | 5.55

Reference: patent US20250127169A1, “PLANTS HAVING INCREASED TOLERANCE TO HERBICIDES” (BASF Agricultural Solutions Seed US LLC, priority 2021, published 2025)
